Assay results: patent US6525059B1, “Substituted pyrazoles as p38 kinase inhibitors” (G. D. Searle & Company, priority 1998, dated 2003)
Like-named read-outs stand apart in the source and are kept apart here.

Columns and labels:
[1] = molecular target: T1, human p38 kinase alpha (Homo sapiens, UniProt Q16539); experiment: p38 kinase in vitro assay, phosphorylation of biotinylated PHAS-I with gamma 32P-ATP; type: biochemical; conditions: for inhibition at 10 µM / inhibition at 1 µM: read-out: P38 alpha kinase % inhib @ conc.
T1 construct: The coding region of the human p38a cDNA was obtained by PCR-amplification from RNA isolated from the human monocyte cell line THP.1; GST (N); made in house; host or cells: E. coli DH10B
T1 sequence (Q16539 whole entry): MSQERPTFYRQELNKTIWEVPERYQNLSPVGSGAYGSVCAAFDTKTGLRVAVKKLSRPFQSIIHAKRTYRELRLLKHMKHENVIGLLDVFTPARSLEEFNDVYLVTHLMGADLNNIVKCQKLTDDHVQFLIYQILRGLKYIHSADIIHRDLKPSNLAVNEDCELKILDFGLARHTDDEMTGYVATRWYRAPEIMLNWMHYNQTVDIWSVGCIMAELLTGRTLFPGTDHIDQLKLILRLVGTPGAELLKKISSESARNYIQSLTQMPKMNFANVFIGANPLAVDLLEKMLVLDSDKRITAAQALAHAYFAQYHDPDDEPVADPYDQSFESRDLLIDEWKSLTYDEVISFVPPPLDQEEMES
In short: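 MKK6-activated human p38α phosphorylates biotinylated PHAS-I with γ-32P-ATP in 25 mM HEPES pH 7.5, 10 mM Mg acetate, 50 μM unlabeled ATP, 1% DMSO, 30 °C for 1 h or overnight. Compounds at 100–0.001 μM (10-fold steps, triplicate); substrate captured on streptavidin filter plates and counted by scintillation.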

[2] = system: TNF-α; experiment: LPS stimulation of TNF production by U937 cells; type: cell-based, human; conditions: Homo sapiens; for inhibition at 1 µM: U-937, @ 1.0 uM, read-out: U937 Cell % inhib @ conc.
In short: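 PMA-differentiated human U937 cells (20 ng/ml PMA, 24 h, then 24-48 h rest) at 2 million cells/ml, 0.1% DMSO final, stimulated with E. coli LPS (100 ng/ml final) for 4 h at 37° C. TNF-α in medium measured by ELISA; IC50 in μM.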

[3] = read-out: P38 alpha kinase IC50
[4] = U-937, TNF production, LPS-stimulated human U937 cells, read-out: U937 Cell IC50
[5] = p38α in vitro, PHAS-I assay procedure, read-out: p38^1 IC50
[6] = U-937, LPS-stimulated U937 cells, read-out: U937 IC50

| SMILES | IC50 [1, 3] | inhibition at 1 µM [2] | further results |
| --- | --- | --- | --- |
| C[C@@H](NC(=O)NCc1ccccc1)c1[nH]nc(-c2ccc(F)cc2)c1-c1ccncc1 [Example B-0403] | 1770 nM | – | IC50 [2, 4]: 2420 nM |
| O=C(NCc1[nH]nc(-c2ccc(F)cc2)c1-c1ccncc1)c1cccnc1 [Example B-0200] | 1310 nM | 16% | – |
| O=C(NCc1[nH]nc(-c2ccc(F)cc2)c1-c1ccncc1)Nc1ccccc1OC(F)(F)F [Example B-0185] | – | 25% | inhibition at 10 µM [1]: 65% |
| O=C(NCc1[nH]nc(-c2ccc(F)cc2)c1-c1ccncc1)c1c(F)ccc(F)c1F [Example B-0278] | 1260 nM | 36% | – |
| C[C@@H](NC(=O)N1CCCC1)c1[nH]nc(-c2ccc(F)cc2)c1-c1ccncc1 [Example B-0404] | 310 nM | 48% | – |
| O=S(=O)(NCc1[nH]nc(-c2ccc(F)cc2)c1-c1ccncc1)c1cccc2cnccc12 [Example B-0265] | 920 nM | 24% | – |
| C[C@@H](NC(=O)c1c(Cl)cccc1Cl)c1[nH]nc(-c2ccc(F)cc2)c1-c1ccncc1 [Example B-0519] | 43 nM | 87% | – |
| COC(=O)CNc1n[nH]c(-c2ccc(F)cc2)c1-c1ccncc1 [Example A-292, N-[5-(4-fluorophenyl)-4-(4-pyridinyl)-1H-pyrazol-3-yl]glycine methyl ester] | – | – | IC50 [1, 5]: 1150 nM; IC50 [2, 6]: > 10000 nM |
| Cc1c(Cl)cccc1S(=O)(=O)NCc1[nH]nc(-c2ccc(F)cc2)c1-c1ccncc1 [Example B-0124] | – | 15% | inhibition at 1 µM [1]: 73% |
| CCc1ccc(S(=O)(=O)NCc2[nH]nc(-c3ccc(F)cc3)c2-c2ccncc2)cc1 [Example B-0132] | – | 8% | inhibition at 1 µM [1]: 76% |
| CS(=O)(=O)c1ccccc1S(=O)(=O)NCc1[nH]nc(-c2ccc(F)cc2)c1-c1ccncc1 [Example B-0261] | 490 nM | 23% | – |
| C[C@@H](NC(=O)c1cc(Cl)cc(Cl)c1)c1[nH]nc(-c2ccc(F)cc2)c1-c1ccncc1 [Example B-0498] | 330 nM | 11% | – |
| O=C(NCc1[nH]nc(-c2ccc(F)cc2)c1-c1ccncc1)c1cccc2ccccc12 [Example B-0275] | 2670 nM | 33% | – |
| COc1ccc(S(=O)(=O)N[C@H](C)c2[nH]nc(-c3ccc(F)cc3)c2-c2ccncc2)cc1OC [Example B-0400] | 160 nM | 25% | – |
| C[C@@H](NS(=O)(=O)c1ccc(Cl)c(Cl)c1)c1[nH]nc(-c2ccc(F)cc2)c1-c1ccncc1 [Example B-0465] | 84 nM | 98% | – |
| O=C(NCc1[nH]nc(-c2ccc(F)cc2)c1-c1ccncc1)c1cnc2ccccc2n1 [Example B-0206] | 5760 nM | 14% | – |
| CCOC(=O)c1ccc(NC(=O)NCc2[nH]nc(-c3ccc(F)cc3)c2-c2ccncc2)cc1 [Example B-0161] | – | 13% | inhibition at 10 µM [1]: 72% |
| O=S(=O)(NCc1[nH]nc(-c2ccc(F)cc2)c1-c1ccncc1)c1cccc(Cl)c1Cl [Example B-0230] | 41 nM | 30% | – |
| C[C@@H](NC(=O)N1CCOCC1)c1[nH]nc(-c2ccc(F)cc2)c1-c1ccncc1 [Example B-0405] | 790 nM | 30% | – |
| O=C(NCc1ccc(S(=O)(=O)NCc2[nH]nc(-c3ccc(F)cc3)c2-c2ccncc2)s1)c1ccccc1 [Example B-0255] | 320 nM | 68% | – |
| O=S(=O)(NCc1[nH]nc(-c2ccc(F)cc2)c1-c1ccncc1)c1ccccc1Cl [Example B-0240] | 200 nM | 70% | – |
| O=C(NCc1[nH]nc(-c2ccc(F)cc2)c1-c1ccncc1)C(F)(F)F [Example B-0210] | 57 nM | 67% | – |
| O=C(NCc1[nH]nc(-c2ccc(F)cc2)c1-c1ccncc1)NC(=O)c1ccccc1 [Example B-0146] | – | 28% | inhibition at 10 µM [1]: 77% |
| C[C@@H](NS(=O)(=O)c1cn(C)cn1)c1[nH]nc(-c2ccc(F)cc2)c1-c1ccncc1 [Example B-0486] | 240 nM | 80% | – |
| C[C@@H](NC(=O)c1cccs1)c1[nH]nc(-c2ccc(F)cc2)c1-c1ccncc1 [Example B-0528] | 140 nM | 70% | – |
| C[C@@H](NC(=O)C1CCC1)c1[nH]nc(-c2ccc(F)cc2)c1-c1ccncc1 [Example B-0360] | 1600 nM | 19% | – |
| C[C@@H](NC(=O)c1cc(F)c(F)cc1F)c1[nH]nc(-c2ccc(F)cc2)c1-c1ccncc1 [Example B-0521] | 1370 nM | 52% | – |

| SMILES | IC50 [1, 3] | inhibition at 1 µM [2] | further results |
| --- | --- | --- | --- |
| C[C@@H](NS(=O)(=O)c1ccc(F)cc1Cl)c1[nH]nc(-c2ccc(F)cc2)c1-c1ccncc1 [Example B-0449] | 830 nM | 81% | – |
| Cc1ccccc1S(=O)(=O)N[C@H](C)c1[nH]nc(-c2ccc(F)cc2)c1-c1ccncc1 [Example B-0469] | 56 nM | 92% | – |
| C[C@@H](NC(=O)c1ccccc1)c1[nH]nc(-c2ccc(F)cc2)c1-c1ccncc1 [Example B-0375] | 1000 nM | 19% | – |
| CC(C)c1ccc(S(=O)(=O)N[C@H](C)c2[nH]nc(-c3ccc(F)cc3)c2-c2ccncc2)cc1 [Example B-0446] | 780 nM | 80% | – |
| C[C@@H](NS(C)(=O)=O)c1[nH]nc(-c2ccc(F)cc2)c1-c1ccncc1 [Example B-0396] | 97 nM | – | IC50 [2, 4]: 440 nM |
| C[C@@H](NC(=O)Nc1cccc(F)c1)c1[nH]nc(-c2ccc(F)cc2)c1-c1ccncc1 [Example B-0418] | 220 nM | 27% | – |
| CCCCCCCCS(=O)(=O)NCc1[nH]nc(-c2ccc(F)cc2)c1-c1ccncc1 [Example B-0142] | – | 12% | inhibition at 1 µM [1]: 86% |
| CSCCC(=O)NCc1[nH]nc(-c2ccc(F)cc2)c1-c1ccncc1 [Example B-0081] | – | 13% | inhibition at 1 µM [1]: 92% |
| C#CCNc1[nH]nc(-c2ccc(F)cc2)c1-c1ccncc1 [Example A-288, 5-(4-fluorophenyl)-N-2-propynyl-4-(4-pyridinyl)-1H-pyrazol-3-amine] | – | – | IC50 [1, 5]: 17 nM; IC50 [2, 6]: 300 nM |
| COc1ccc(CC(=O)N[C@H](C)c2[nH]nc(-c3ccc(F)cc3)c2-c2ccncc2)cc1 [Example B-0372] | 350 nM | 29% | – |
| C[C@@H](NS(=O)(=O)c1ccccc1S(C)(=O)=O)c1[nH]nc(-c2ccc(F)cc2)c1-c1ccncc1 [Example B-0489] | 300 nM | 80% | – |
| COc1ccc(NC(=O)NCc2[nH]nc(-c3ccc(F)cc3)c2-c2ccncc2)cc1 [Example B-0190] | – | 31% | inhibition at 10 µM [1]: 59% |
| O=C(NCc1[nH]nc(-c2ccc(F)cc2)c1-c1ccncc1)c1ccc(Cl)cc1 [Example B-0268] | 3390 nM | 19% | – |
| O=S(=O)(NCc1[nH]nc(-c2ccc(F)cc2)c1-c1ccncc1)c1cc(Cl)cc(Cl)c1 [Example B-0241] | 100 nM | 45% | – |
| COc1cc(C(=O)NCc2[nH]nc(-c3ccc(F)cc3)c2-c2ccncc2)cc(OC)c1OC [Example B-0085] | – | 21% | inhibition at 1 µM [1]: 83% |
| CSc1cccc(NC(=O)NCc2[nH]nc(-c3ccc(F)cc3)c2-c2ccncc2)c1 [Example B-0145] | – | 12% | inhibition at 10 µM [1]: 54% |
| C[C@@H](NC(=O)c1c(F)cccc1F)c1[nH]nc(-c2ccc(F)cc2)c1-c1ccncc1 [Example B-0523] | 190 nM | 83% | – |
| C=CCOC(=O)N[C@H](C)c1[nH]nc(-c2ccc(F)cc2)c1-c1ccncc1 [Example B-0357] | 1460 nM | – | IC50 [2, 4]: 660 nM |
| O=S(=O)(NCc1[nH]nc(-c2ccc(F)cc2)c1-c1ccncc1)c1cc(S(=O)(=O)c2ccccc2)cs1 [Example B-0259] | 350 nM | 58% | – |
| O=S(=O)(NCc1[nH]nc(-c2ccc(F)cc2)c1-c1ccncc1)c1ccc(F)cc1Cl [Example B-0231] | 55 nM | 40% | – |
| O=C(NCc1[nH]nc(-c2ccc(F)cc2)c1-c1ccncc1)c1ccc(C(F)(F)F)cc1 [Example B-0302] | 4020 nM | 24% | – |
| CCCCOc1ccc(S(=O)(=O)N[C@H](C)c2[nH]nc(-c3ccc(F)cc3)c2-c2ccncc2)cc1 [Example B-0456] | 1810 nM | 67% | – |
| C[C@@H](NS(=O)(=O)[C@@]12CC[C@H](CC1=O)C2(C)C)c1[nH]nc(-c2ccc(F)cc2)c1-c1ccncc1 [Example B-0472] | 190 nM | 54% | – |
| O=C(NCc1[nH]nc(-c2ccc(F)cc2)c1-c1ccncc1)c1c(F)cccc1F [Example B-0298] | 580 nM | 48% | – |
| O=S(=O)(NCc1[nH]nc(-c2ccc(F)cc2)c1-c1ccncc1)c1ccc(F)c(Cl)c1 [Example B-0242] | < 100 nM | 78% | – |
| O=C(NCc1[nH]nc(-c2ccc(F)cc2)c1-c1ccncc1)c1ccc(F)cc1C(F)(F)F [Example B-0286] | 330 nM | 50% | – |
